Measured values published in patent US11512069B2, “TLR7/8 antagonists and uses thereof” (Merck Patent GmbH, priority 2016, dated 2022).

molecular target: T1, TLR7 (Homo sapiens, UniProt Q9NYK1); experiment: HEK Cell Assay (TLR7/NFKb HEK reporter cells, Steady-Glo); type: cell-based; settings: compound 30 min, then R*48 agonist 5 hours, Steady-Glo readout, read-out: Potency
T1 construct: expressed in transfected cells; host or cells: HEK cells carrying TLR7 and an NF-kB reporter read with Steady-Glo
T1 sequence (Q9NYK1 27-1049): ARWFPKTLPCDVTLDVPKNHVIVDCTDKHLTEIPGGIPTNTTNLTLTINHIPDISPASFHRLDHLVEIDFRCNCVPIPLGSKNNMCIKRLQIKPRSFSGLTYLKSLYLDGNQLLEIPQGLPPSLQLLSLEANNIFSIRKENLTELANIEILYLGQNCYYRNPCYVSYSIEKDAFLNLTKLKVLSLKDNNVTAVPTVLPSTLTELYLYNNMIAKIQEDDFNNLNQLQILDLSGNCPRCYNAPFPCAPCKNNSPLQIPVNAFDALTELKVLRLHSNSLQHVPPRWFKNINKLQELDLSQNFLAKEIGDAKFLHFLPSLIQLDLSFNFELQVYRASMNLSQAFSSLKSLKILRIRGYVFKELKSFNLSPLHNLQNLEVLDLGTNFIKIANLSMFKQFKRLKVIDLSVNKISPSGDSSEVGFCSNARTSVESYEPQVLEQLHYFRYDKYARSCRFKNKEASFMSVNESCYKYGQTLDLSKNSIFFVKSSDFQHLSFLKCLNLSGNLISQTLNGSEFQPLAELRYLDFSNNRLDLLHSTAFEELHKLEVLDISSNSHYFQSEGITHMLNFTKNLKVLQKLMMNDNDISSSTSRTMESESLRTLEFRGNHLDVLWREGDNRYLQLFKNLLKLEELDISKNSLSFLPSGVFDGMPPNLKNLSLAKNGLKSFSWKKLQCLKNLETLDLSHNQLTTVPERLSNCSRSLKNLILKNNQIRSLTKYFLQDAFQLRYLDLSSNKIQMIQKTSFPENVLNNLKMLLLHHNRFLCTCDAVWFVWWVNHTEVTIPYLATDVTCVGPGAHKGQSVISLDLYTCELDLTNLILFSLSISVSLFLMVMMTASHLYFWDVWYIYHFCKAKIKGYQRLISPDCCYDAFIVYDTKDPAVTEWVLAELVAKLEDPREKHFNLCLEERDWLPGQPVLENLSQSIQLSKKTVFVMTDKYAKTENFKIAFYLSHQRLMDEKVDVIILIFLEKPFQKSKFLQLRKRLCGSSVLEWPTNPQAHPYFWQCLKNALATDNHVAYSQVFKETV
Outline: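 TLR7/NF-κB HEK reporter cells cultured 24 h, then pre-incubated 30 min with compound before adding R*48 agonist. Luciferase read by Steady-Glo luminescence after 5 h.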

| Compound | IC50 [nM] |
| --- | --- |
| COc1ccc([C@H]2C[C@@H](C)CN(C(=O)CC3CCN(C)CC3)C2)c2cccnc12 [Compound 87, 1-[(3R,5R)-3-(8-Methoxy-quinolin-5-yl)-5-methyl-piperidin-1-yl]-2-(1-methyl-piperidin-4-yl)-ethanone] | < 1000 |
| COc1ncc([C@@H]2C[C@@H](C)CN(C(=O)CC3CCN(C)CC3)C2)c2cccnc12 [Compound 88, 1-[(3S,5R)-3-(8-Methoxy-[1,7]naphthyridin-5-yl)-5-methyl-piperidin-1-yl]-2-(1-methyl-piperidin-4-yl)-ethanone] | 1000 to 20000 |
| COc1ncc([C@H]2C[C@@H](C)CN(C(=O)CC3CCN(C)CC3)C2)c2cccnc12 [Compound 89, 1-[(3R,5R)-3-(8-Methoxy-[1,7]naphthyridin-5-yl)-5-methyl-piperidin-1-yl]-2-(1-methyl-piperidin-4-yl)-ethanone] | 1000 to 20000 |
| Cc1c(F)cc([C@H]2C[C@@H](C)CN(C(=O)CC3CCN(C)CC3)C2)c2cccnc12 [Compound 90, 1-[(3R,5R)-3-(7-Fluoro-8-methyl-quinolin-5-yl)-5-methyl-piperidin-1-yl]-2-(1-methyl-piperidin-4-yl)-ethanone] | < 1000 |
| C[C@@H]1C[C@H](c2ccc(C#N)c3ncccc23)CN(C(=O)C[C@H]2CCN(C)CC2(F)F)C1 [Compound 91, 5-{(3R,5R)-1-[2-((R)-3,3-Difluoro-1-methyl-piperidin-4-yl)-acetyl]-5-methyl-piperidin-3-yl}-quinoline-8-carbonitrile] | 1000 to 20000 |
| C[C@@H]1C[C@H](c2ccc(C#N)c3ncccc23)CN(C(=O)C[C@@H]2CCN(C)CC2(F)F)C1 [Compound 92, 5-((3R,5R)-1-[2-((S)-3,3-Difluoro-1-methyl-piperidin-4-yl)-acetyl]-5-methyl-piperidin-3-yl}-quinoline-8-carbonitrile] | < 1000 |
| C[C@@H]1C[C@H](c2ccc(C#N)c3ncccc23)CN(C(=O)CC2C3CC2CN(C)C3)C1 (stereo partly drawn) [Compound 93, 5-[(3R,5R)-5-methyl-1-[2-(3-methyl-3-azabicyclo[3.1.1]heptan-6-yl)acetyl]-3-piperidyl]quinoline-8-carbonitrile] | < 1000 |
| C[C@@H]1C[C@H](c2ccc(C#N)c3ncccc23)CN(C(=O)CN2CCN(C)CC2)C1 [Compound 97, 5-((3R,5R)-5-Methyl-1-[2-(4-methyl-piperazin-1-yl)-acetyl]-piperidin-3-yl}-quinoline-8-carbonitrile] | < 1000 |
| C[C@@H]1C[C@H](c2ccc(C#N)c3ncccc23)CN(C(=O)C2(N)CC2)C1 [Compound 98, 5-[(3R,5R)-1-(1-Amino-cyclopropanecarbonyl)-5-methyl-piperidin-3-yl]-quinoline-8-carbonitrile] | > 20000 |
| C[C@@H]1C[C@H](c2ccc(C#N)c3ncccc23)CN(C(=O)C2CC(N)C2)C1 (stereo partly drawn) [Compound 100, 5-[(3R,5R)-1-(3-aminocyclobutanecarbonyl)-5-methyl-3-piperidyl]quinoline-8-carbonitrile] | < 1000 |
| C[C@@H]1C[C@@H](c2ccc(OC(F)(F)F)c3ncccc23)CN(C(=O)CN2CCN(C)CC2)C1 [Compound 104, 2-(4-Methyl-piperazin-1-yl)-1-[(3R,5S)-3-methyl-5-(8-trifluoromethoxy-quinolin-5-yl)-piperidin-1-yl]-ethanone] | > 20000 |
| C[C@@H]1C[C@H](c2ccc(C#N)c3ncccc23)CN(Cc2cnn(C)c2)C1 [Compound 106, 5-[(3R,5R)-5-methyl-1-[(1-methylpyrazol-4-yl)methyl]-3-piperidyl]quinoline-8-carbonitrile] | > 20000 |
| CC1CC(c2ccc(C#N)c3ncccc23)CN(C(=O)NC2CCN(C)CC2)C1 (stereo not shown) [Compound 109, 3-(8-Cyano-quinolin-5-yl)-5-methyl-piperidine-1-carboxylic acid (1-methyl-piperidin-4-yl)-amide] | < 1000 |
| CC1CC(c2ccc(C#N)c3ncccc23)CN(C(=O)NCC2CC(F)(F)C2)C1 (stereo not shown) [Compound 110, 3-(8-Cyano-quinolin-5-yl)-5-methyl-piperidine-1-carboxylic acid (3,3-difluoro-cyclobutylmethyl)-amide] | 1000 to 20000 |

Second part, the compound after the results:

| IC50 [nM] | Compound |
| --- | --- |
| 1000 to 20000 | C[C@@H]1C[C@H](c2cc(F)c(C#N)c3ncccc23)CN(C(=O)CC2CCN(C)CC2)C1 [Compound 85, 7-Fluoro-5-{(3R,5R)-5-methyl-1-[2-(1-methyl-piperidin-4-yl)-acetyl]-piperidin-3-yl}-quinoline-8-carbonitrile] |
| < 1000 | COc1ccc([C@@H]2C[C@@H](C)CN(C(=O)CC3CCN(C)CC3)C2)c2cccnc12 [Compound 86, 1-[(3S,5R)-3-(8-Methoxy-quinolin-5-yl)-5-methyl-piperidin-1-yl]-2-(1-methyl-piperidin-4-yl)-ethanone] |
| 1000 to 20000 | Cc1ncc([C@@H]2C[C@@H](C)CN(C(=O)CC3CCN(C)CC3)C2)c2cccnc12 [Compound 94, 1-[(3R,5S)-3-Methyl-5-(8-methyl-[1,7]naphthyridin-5-yl)-piperidin-1-yl]-2-(1-methyl-piperidin-4-yl)-ethanone] |
| 1000 to 20000 | Cc1ncc([C@H]2C[C@@H](C)CN(C(=O)CC3CCN(C)CC3)C2)c2cccnc12 [Compound 95, 1-[(3R,5R)-3-Methyl-5-(8-methyl-[1,7]naphthyridin-5-yl)-piperidin-1-yl]-2-(1-methyl-piperidin-4-yl)-ethanone] |
| 1000 to 20000 | C[C@@H]1C[C@@H](c2ccc(C#N)c3ncccc23)CN(C(=O)CN2CCN(C)CC2)C1 [Compound 96, 5-{(3S,5R)-5-Methyl-1-[2-(4-methyl-piperazin-1-yl)-acetyl]-piperidin-3-yl}-quinoline-8-carbonitrile] |
| 1000 to 20000 | C[C@@H]1C[C@@H](c2ccc(C#N)c3ncccc23)CN(C(=O)C2CC(N)C2)C1 (stereo partly drawn) [Compound 99, 5-[(3S,5R)-1-(3-aminocyclobutanecarbonyl)-5-methyl-3-piperidyl]quinoline-8-carbonitrile] |
| > 20000 | C[C@H]1C[C@H](c2ccc(C#N)c3nccnc23)CN(C(=O)CC2CCN(C)CC2)C1 [Compound 101, 8-{(3R,5S)-5-Methyl-1-[2-(1-methyl-piperidin-4-yl)-acetyl]-piperidin-3-yl}-quinoxaline-5-carbonitrile] |
| < 1000 | C[C@H]1C[C@@H](c2ccc(C#N)c3nccnc23)CN(C(=O)CC2CCN(C)CC2)C1 [Compound 102, 8-{(3S,5S)-5-Methyl-1-[2-(1-methyl-piperidin-4-yl)-acetyl]-piperidin-3-yl}-quinoxaline-5-carbonitrile] |
| 1000 to 20000 | C[C@@H]1C[C@H](c2ccc(OC(F)(F)F)c3ncccc23)CN(C(=O)CC2CCN(C)CC2)C1 [Compound 103, 2-(1-Methyl-piperidin-4-yl)-1-[(3R,5R)-3-methyl-5-(8-trifluoromethoxy-quinolin-5-yl)-piperidin-1-yl]-ethanone] |
| 1000 to 20000 | C[C@@H]1C[C@H](c2ccc(OC(F)(F)F)c3ncccc23)CN(C(=O)CN2CCN(C)CC2)C1 [Compound 105, 2-(4-Methyl-piperazin-1-yl)-1-[(3R,5R)-3-methyl-5-(8-trifluoromethoxy-quinolin-5-yl)-piperidin-1-yl]-ethanone] |
| < 1000 | C[C@@H]1C[C@H](c2ccc(OC(F)(F)F)c3ncccc23)CN(C(=O)NC2CCN(C)CC2)C1 [Compound 112, (3R,5R)-3-Methyl-5-(8-trifluoromethoxy-quinolin-5-yl)-piperidine-1-carboxylic acid (1-methyl-piperidin-4-yl)-amide] |
